# Experimental data reported in US20260042755A1, “GPR6 INVERSE AGONISTS” (MapLight Therapeutics, Inc., priority 2022, published 2026).
# Experiments:
# GPR6 = target: T1, GPR6 (Homo sapiens, UniProt P46095); assay: GPR6 antagonist functional cAMP assay (LANCE Ultra cAMP TR-FRET, CHO cells stably expressing GPR6); type: cell-based
# T1 construct: expressed in transfected cells; host or cells: CHO cells
# Summary of the method: (§1)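 We measure cAMP by TR-FRET (665 nm) in cells held in glucose-containing Krebs-Ringer buffer with BSA and a PDE inhibitor, after a 45 min, 37 °C compound incubation. IC50s derive from a four-parameter logistic fit.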
# GPR3 = target: T2, GPR3 (Homo sapiens, UniProt P46089); assay: GPR3 antagonist functional cAMP assay (LANCE Ultra cAMP TR-FRET, CHO cells stably expressing GPR3); type: cell-based
# T2 construct: expressed in transfected cells; host or cells: CHO cells
# Summary of the method: as §1
# [1] = CHO cells stably expressing GPR6, cAMP assay
# [2] = CHO cells stably expressing GPR3, cAMP assay
# [3] = CHO cells stably expressing GPR6, cAMP assay (Example 24)
# [4] = CHO cells stably expressing GPR3, cAMP assay (Example 24)
# [5] = procedure as described in Example 24
# T2 sequence (P46089 whole entry, species assumed): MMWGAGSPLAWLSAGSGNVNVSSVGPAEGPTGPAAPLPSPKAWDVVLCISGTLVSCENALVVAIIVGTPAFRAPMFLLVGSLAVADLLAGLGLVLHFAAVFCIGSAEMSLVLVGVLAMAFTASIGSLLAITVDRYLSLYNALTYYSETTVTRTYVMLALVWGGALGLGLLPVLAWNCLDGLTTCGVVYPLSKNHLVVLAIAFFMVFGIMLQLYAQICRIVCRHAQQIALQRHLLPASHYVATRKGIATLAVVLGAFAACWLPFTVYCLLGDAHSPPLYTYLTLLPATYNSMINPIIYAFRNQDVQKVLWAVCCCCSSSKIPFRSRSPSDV
# T1 sequence (P46095 whole entry): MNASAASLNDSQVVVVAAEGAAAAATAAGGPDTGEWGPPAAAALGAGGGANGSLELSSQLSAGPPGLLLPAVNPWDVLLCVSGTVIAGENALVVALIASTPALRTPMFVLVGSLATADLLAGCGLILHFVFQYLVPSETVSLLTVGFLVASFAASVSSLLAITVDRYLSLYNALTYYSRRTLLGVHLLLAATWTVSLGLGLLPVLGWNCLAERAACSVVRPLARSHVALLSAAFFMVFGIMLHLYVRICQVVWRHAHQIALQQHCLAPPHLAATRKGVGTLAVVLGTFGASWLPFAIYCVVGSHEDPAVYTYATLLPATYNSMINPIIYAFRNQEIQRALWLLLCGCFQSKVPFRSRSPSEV
Structure (SMILES),IC50 (GPR6; [3]),IC50 (GPR3; [4]),IC50 (GPR6; procedure of Example 24),IC50 (GPR3; procedure of Example 24),other results
"CC(=O)N1CCc2nc(N3CCN(Cc4ccccc4C)CC3)c(-c3cnn(C)c3)nc2C1 [Compound 510, 1-[3-(1-methyl-4-pyrazolyl)-2-{4-[(o-tolyl)methyl]-1-piperazinyl}-5,6,7,8-tetrahydro-1,4,6-triaza-6-naphthyl]-1-ethanone]",,,,,IC50 (GPR6; [1]): 1000 to 30000 nM; IC50 (GPR3; [2]): 1000 to 30000 nM
"Cn1cc(-c2nc3cnc([C@H](O)C(C)(C)O)cc3nc2N2CCN(Cc3ccc(F)cc3F)CC2)cn1 (single isomer, unassigned) [Compound 262]",100 to 1000 nM,1000 to 30000 nM,,,
"CCn1cc(-c2nc3c(nc2N2CCC(Oc4ccc(F)cc4F)CC2)CCN(S(C)(=O)=O)C3)cn1 [Compound 269, 4-(2,4-difluorophenoxy)-1-[3-(1-ethyl-1H-pyrazol-4-yl)-6-methanesulfonyl-5H,6H,7H,8H-pyrido[3,4-b]pyrazin-2-yl]piperidine]",,,< 100 nM,1000 to 30000 nM,
"Cn1cc(-c2nc3cnc([C@H](O)C(C)(C)O)cc3nc2N2CCN(Cc3ccc(F)cc3F)CC2)cn1 (single isomer, unassigned) [Compound 579]",,,,,IC50 (GPR6; [1]): < 100 nM; IC50 (GPR3; [2]): 100 to 1000 nM
"CC(=O)N1CCc2nc(N3CCC(Oc4ccc(F)cc4F)CC3)c(-c3cccc(C(O)C(F)F)n3)nc2C1 (centres unmarked) [Compound 210, 1-(3-[6-(2,2-difluoro-1-hydroxyethyl)pyridin-2-yl]-2-[4-(2,4-difluorophenoxy)piperidin-1-yl]-5H,6H,7H,8H-pyrido[3,4-b]pyrazin-6-yl)ethan-1-one]",1000 to 30000 nM,1000 to 30000 nM,,,
"Cn1cc(-c2nc3ccc(C(O)C(C)(C)O)nc3nc2N2CCC(Oc3ccc(F)cc3F)CC2)cn1 (centres unmarked) [Compound 587, 1-{3-[4-(2,4-difluorophenoxy)-1-piperidyl]-2-(1-methyl-4-pyrazolyl)-1,4,5-triaza-6-naphthyl}-2-methyl-1,2-propanediol]",,,,,IC50 (GPR6; [1]): 1000 to 30000 nM; IC50 (GPR3; [2]): 1000 to 30000 nM
"CCn1cc(-c2nc3c(nc2N2CCN(C(=O)c4ccc(Cl)c(C)c4)CC2)CCN(C(C)=O)C3)cn1 [Compound 550, 1-{2-[4-(4-chloro-3-toluoyl)-1-piperazinyl]-3-(1-ethyl-4-pyrazolyl)-5,6,7,8-tetrahydro-1,4,6-triaza-6-naphthyl}-1-ethanone]",,,,,IC50 (GPR6; [1]): 1000 to 30000 nM; IC50 (GPR3; [2]): 1000 to 30000 nM
"Cn1cc(-c2nc3cnc(C(O)CN)cc3nc2N2CCC(Oc3ccc(F)cc3F)CC2)cn1 (centres unmarked) [Compound 309, 2-amino-1-(2-(4-(2,4-difluorophenoxy)piperidin-1-yl)-3-(1-methyl-1H-pyrazol-4-yl)pyrido[3,4-b]pyrazin-7-yl)ethan-1-ol]",,,100 to 1000 nM,1000 to 30000 nM,
"CC(=O)N1CCc2nc(N3CCC(Oc4cc(F)ccc4F)C3)c(-c3cnn(C)c3)nc2C1 (centres unmarked) [Compound 342, 1-{2-[3-(2,5-difluorophenoxy)pyrrolidin-1-yl]-3-(1-methyl-1H-pyrazol-4-yl)-5H,6H,7H,8H-pyrido[3,4-b]pyrazin-6-yl}ethan-1-one]",,,1000 to 30000 nM,100 to 1000 nM,
"CCn1cc(-c2nc3cnc(C(O)C(C)(C)O)cc3nc2N2CCC(Oc3ccc(F)cc3F)CC2)cn1 (centres unmarked) [Compound 307, 1-{2-[4-(2,4-difluorophenoxy)piperidin-1-yl]-3-(1-ethyl-1H-pyrazol-4-yl)pyrido[3,4-b]pyrazin-7-yl}-2-methylpropane-1,2-diol]",,,100 to 1000 nM,1000 to 30000 nM,
"CC(=O)N1CCc2nc(N3CCC(Oc4ccc(F)cc4F)CC3)c(-c3cnn(C(C)C#N)c3)nc2C1 (centres unmarked) [Compound 208, 2-(4-{6-acetyl-2-[4-(2,4-difluorophenoxy)piperidin-1-yl]-5H,6H,7H,8H-pyrido[3,4-b]pyrazin-3-yl}-1H-pyrazol-1-yl)propanenitrile]",100 to 1000 nM,1000 to 30000 nM,,,
"CCn1cc(-c2nc3cnccc3nc2N2CCC(Oc3cc(Cl)ccc3Cl)CC2)cn1 [Compound 288, 4-(2,5-dichlorophenoxy)-1-[3-(1-ethyl-1H-pyrazol-4-yl)pyrido[3,4-b]pyrazin-2-yl]piperidine]",,,< 100 nM,1000 to 30000 nM,
"Cn1cc(-c2nc3c(nc2N2CC[C@H](Oc4ccc(F)cc4F)[C@H](F)C2)CCN(Cc2ccccc2)C3)cn1 (single isomer, unassigned) [Compound 333]",,,1000 to 30000 nM,≥ 30000 nM,
"CC(=O)N1CCc2nc(N3CCN(Cc4ccco4)CC3)c(-c3cnn(C)c3)nc2C1 [Compound 537, 1-[2-(4-furfuryl-1-piperazinyl)-3-(1-methyl-4-pyrazolyl)-5,6,7,8-tetrahydro-1,4,6-triaza-6-naphthyl]-1-ethanone]",,,,,IC50 (GPR6; [1]): 1000 to 30000 nM; IC50 (GPR3; [2]): 1000 to 30000 nM
"CC(=O)N1CCc2nc(N3CC(Oc4ccc(F)cc4F)C3)c(-c3cnn(C)c3)nc2C1 [Compound 398, 1-{2-[3-(2,4-difluorophenoxy)azetidin-1-yl]-3-(1-methyl-1H-pyrazol-4-yl)-5H,6H,7H,8H-pyrido[3,4-b]pyrazin-6-yl}ethan-1-one]",1000 to 30000 nM,1000 to 30000 nM,,,
"CC(=O)N1CCc2nc(N3CCC(Oc4ccc(F)cc4F)CC3)c(-c3cccc(C(=O)N(C)C)n3)nc2C1 [Compound 131, 6-(6-acetyl-2-(4-(2,4-difluorophenoxy)piperidin-1-yl)-5,6,7,8-tetrahydropyrido[3,4-b]pyrazin-3-yl)-N,N-dimethylpicolinamide]",1000 to 30000 nM,1000 to 30000 nM,,,
"Cn1cc(-c2nc3cnccc3nc2N2CCN(CC3CCCOC3)CC2)cn1 (centres unmarked) [Compound 241, 1-[3-(1-methyl-1H-pyrazol-4-yl)pyrido[3,4-b]pyrazin-2-yl]-4-[(oxan-3-yl)methyl]piperazine]",≥ 30000 nM,≥ 30000 nM,,,
"CC(=O)N1CCc2nc(N3CCC(Oc4ccc(F)cc4F)CC3)c(-c3ncn[nH]3)nc2C1 [Compound 1, 1-{2-[4-(2,4-difluorophenoxy)piperidin-1-yl]-3-(1H-1,2,4-triazol-5-yl)-5H,6H,7H,8H-pyrido[3,4-b]pyrazin-6-yl}ethan-1-one]",,,,,IC50 (GPR6; [5]): 1000 to 30000 nM; IC50 (GPR3; [5]): 100 to 1000 nM
"Fc1ccc(OC2CC3(C2)CN(c2nc4ccncc4nc2-c2cn[nH]c2)C3)c(F)c1 [Compound 26, 2-(6-(2,4-difluorophenoxy)-2-azaspiro[3.3]heptan-2-yl)-3-(1H-pyrazol-4-yl)pyrido[3,4-b]pyrazine]",,,,,IC50 (GPR6; [5]): 1000 to 30000 nM; IC50 (GPR3; [5]): 100 to 1000 nM

# Second part, led by results:
IC50 (GPR6; [3]),IC50 (GPR3; [4]),IC50 (GPR6; procedure of Example 24),IC50 (GPR3; procedure of Example 24),Structure (SMILES),other results
,,100 to 1000 nM,1000 to 30000 nM,"CC(C)(O)[C@H](O)c1cc2nc(N3CCN(Cc4ccccc4F)CC3)c(-c3cnn(C4CC4)c3)nc2cn1 (single isomer, unassigned) [Compound 732]",
,,100 to 1000 nM,1000 to 30000 nM,"CC(C)(O)[C@@](C)(O)c1cc2nc(N3CCC(Oc4ccc(F)cc4F)CC3)c(-c3cnn(C4CC4)c3)nc2cn1 (single isomer, unassigned) [Compound 665]",
100 to 1000 nM,1000 to 30000 nM,,,"CNCC(O)c1cc2nc(N3CCC(Oc4ccc(F)cc4F)CC3)c(-c3cnn(C)c3)nc2cn1 (centres unmarked) [Compound 414, 1-{2-[4-(2,4-difluorophenoxy)piperidin-1-yl]-3-(1-methyl-1H-pyrazol-4-yl)pyrido[3,4-b]pyrazin-7-yl}-2-(methylamino)ethan-1-ol]",
100 to 1000 nM,1000 to 30000 nM,,,"CC(O)C(O)c1cc2nc(N3CCC(Oc4ccc(F)cc4F)CC3)c(-c3cnn(C)c3)nc2cn1 (centres unmarked) [Compound 401, 1-{2-[4-(2,4-difluorophenoxy)piperidin-1-yl]-3-(1-methyl-1H-pyrazol-4-yl)pyrido[3,4-b]pyrazin-7-yl}propane-1,2-diol]",
1000 to 30000 nM,1000 to 30000 nM,,,"CC(=O)N1CCc2nc(N3CCC(Oc4ccc(F)cc4F)CC3)c(-c3ccnc(Cl)n3)nc2C1 [Compound 466, 1-[3-(2-chloropyrimidin-4-yl)-2-[4-(2,4-difluorophenoxy)piperidin-1-yl]-5H,6H,7H,8H-pyrido[3,4-b]pyrazin-6-yl]ethan-1-one]",
,,100 to 1000 nM,1000 to 30000 nM,"COC[C@](C)(O)c1cc2nc(N3CCC(Oc4ccc(F)cc4F)CC3)c(-c3cnn(C)c3)nc2cn1 (single isomer, unassigned) [Compound 614]",
100 to 1000 nM,1000 to 30000 nM,,,"Cn1cc(-c2nc3cnc(CC(C)(C)O)cc3nc2N2CCC(Oc3ccc(F)cc3F)CC2)cn1 [Compound 461, 1-(2-(4-(2,4-difluorophenoxy)piperidin-1-yl)-3-(1-methyl-1H-pyrazol-4-yl)pyrido[3,4-b]pyrazin-7-yl)-2-methylpropan-2-ol]",
,,< 100 nM,1000 to 30000 nM,"COCC(C)(O)c1cc2nc(-c3cnn(C)c3)c(N3CCC(Oc4ccc(F)cc4F)CC3)nc2cn1 (centres unmarked) [Compound 652, 2-{3-[4-(2,4-difluorophenoxy)-1-piperidyl]-2-(1-methyl-4-pyrazolyl)-1,4,6-triaza-7-naphthyl}-1-methoxy-2-propanol]",
,,< 100 nM,100 to 1000 nM,"COC[C@H](O)c1cc2nc(-c3cnn(C)c3)c(N3CCC(Oc4ccc(F)cc4F)CC3)nc2cn1 (single isomer, unassigned) [Compound 681]",
,,100 to 1000 nM,1000 to 30000 nM,"CC(C)(O)C(O)c1cc2nc(-c3cnn(C(F)F)c3)c(N3CCC(=Cc4ccc(F)cc4F)CC3)nc2cn1 (single isomer, unassigned) [Compound 767]",
,,100 to 1000 nM,1000 to 30000 nM,"Cn1cc(-c2nc3cnc(C(C)(O)C(C)(C)O)cc3nc2N2CCN(Cc3ccc(F)cc3F)CC2)cn1 (centres unmarked) [Compound 617, 2-(2-{4-[(2,4-difluorophenyl)methyl]-1-piperazinyl}-3-(1-methyl-4-pyrazolyl)-1,4,6-triaza-7-naphthyl)-3-methyl-2,3-butanediol]",
100 to 1000 nM,1000 to 30000 nM,,,"CC(=O)N1CCc2nc(N3CCC(Oc4ccc(F)cc4F)CC3)c(-c3ccnc(C)n3)nc2C1 [Compound 435, 1-{2-[4-(2,4-difluorophenoxy)piperidin-1-yl]-3-(2-methylpyrimidin-4-yl)-5H,6H,7H,8H-pyrido[3,4-b]pyrazin-6-yl}ethan-1-one]",
